Reference: PubChem BioAssay AID256 (DTP/NCI, 2004)
Several values for one entry are separate records, joined by “and”; a condition that tells them apart may be missing. Identical values can stand only once. Inconclusive results and toxic doses are left out. Rule for the calls: active = survival T/C of 150% or more; inactive = T/C below 125% in these data.

Test system: CD2F1 mice, L1210 leukemia ip, survival T/C
Assay: NCI In Vivo Anticancer Drug Screen. Data for tumor model L1210 Leukemia (intraperitoneal) in CD2F1 (CDF1) mice
Conditions: endpoint: mean survival time, higher = longer survival
Method in brief: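 Tumor-bearing mice (transplanted tumor) were split into treated and vehicle control groups, and the measured endpoint of each treated group was divided by that of its vehicle controls.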

[1] = dose: 100.0 mg/kg/injection, schedule: Q01DX009 (ip), vehicle: saline with Tween-80
[2] = dose: 100.0 mg/kg/injection, schedule: Q04DX002 (ip), vehicle: saline with Tween-80
[3] = dose: 6.25 mg/kg/injection, schedule: Q01DX009 (ip), vehicle: saline with Tween-80
[4] = dose: 12.5 mg/kg/injection, schedule: Q01DX009 (ip), vehicle: saline with Tween-80
[5] = dose: 25.0 mg/kg/injection, schedule: Q01DX009 (ip), vehicle: saline with Tween-80
[6] = dose: 12.5 mg/kg/injection, schedule: Q04DX003 (ip), vehicle: saline with Tween-80
[7] = dose: 25.0 mg/kg/injection, schedule: Q04DX003 (ip), vehicle: saline with Tween-80
[8] = dose: 50.0 mg/kg/injection, schedule: Q04DX003 (ip), vehicle: saline with Tween-80

Measured: T/C

COc1ncnc2c1cnn2C1OC(CO)C(O)C1O (centres undefined)
inactive: dose: 12.5 mg/kg/injection, schedule: Q01DX005 (ip), vehicle: water 94 % of control | dose: 25.0 mg/kg/injection, schedule: Q01DX005 (ip), vehicle: water 96 % of control | dose: 50.0 mg/kg/injection, schedule: Q01DX005 (ip), vehicle: water 96 % of control | dose: 100.0 mg/kg/injection, schedule: Q01DX005 (ip), vehicle: water 104 % of control | dose: 200.0 mg/kg/injection, schedule: Q01DX005 (ip), vehicle: water 107 % of control

C1N2CN3CN1CN(C2)C3.[Cl][Pt]([Cl])[Cl]
inactive: dose: 3.13 mg/kg/injection, schedule: Q04DX003 (ip), vehicle: distilled water + Tween-80 103 % of control | dose: 6.25 mg/kg/injection, schedule: Q04DX003 (ip), vehicle: distilled water + Tween-80 108 % of control | dose: 12.5 mg/kg/injection, schedule: Q04DX003 (ip), vehicle: distilled water + Tween-80 109 % of control | dose: 25.0 mg/kg/injection, schedule: Q04DX003 (ip), vehicle: distilled water + Tween-80 108 % of control | dose: 50.0 mg/kg/injection, schedule: Q04DX003 (ip), vehicle: distilled water + Tween-80 115 % of control

CCOC(=O)NC(C)(C)CN(C(=O)OCC)c1ccccc1
inactive: [1] 98 % of control | dose: 200.0 mg/kg/injection, schedule: Q01DX009 (ip), vehicle: saline with Tween-80 124 % of control | dose: 400.0 mg/kg/injection, schedule: Q01DX009 (ip), vehicle: saline with Tween-80 95 % of control

c1ccc2c(c1)-c1nc3ccccc3cc1C2N1CCCCC1 (centres undefined)
inactive: dose: 100.0 mg/kg/injection, schedule: Q01DX009 (ip), vehicle: saline 105 % of control | dose: 200.0 mg/kg/injection, schedule: Q01DX009 (ip), vehicle: saline 103 % of control | dose: 400.0 mg/kg/injection, schedule: Q01DX009 (ip), vehicle: saline 97 % of control

CN1C(=O)C2C(N=C(c3ccccc3)N2O)N(C)C1=O (centres undefined)
inactive: dose: 12.5 mg/kg/injection, schedule: Q01DX005 (ip), vehicle: other 93 % of control | dose: 25.0 mg/kg/injection, schedule: Q01DX005 (ip), vehicle: other 93 % of control | dose: 50.0 mg/kg/injection, schedule: Q01DX005 (ip), vehicle: other 90 % of control | dose: 100.0 mg/kg/injection, schedule: Q01DX005 (ip), vehicle: other 97 % of control | dose: 200.0 mg/kg/injection, schedule: Q01DX005 (ip), vehicle: other 98 % of control

CC(CC1CC=CCC1)C(=O)c1ccccc1 (centres undefined)
inactive: dose: 50.0 mg/kg/injection, schedule: Q04DX002 (ip), vehicle: saline with Tween-80 100 % of control | [2] 100 % of control | dose: 200.0 mg/kg/injection, schedule: Q04DX002 (ip), vehicle: saline with Tween-80 93 % of control | dose: 400.0 mg/kg/injection, schedule: Q04DX002 (ip), vehicle: saline with Tween-80 89 % of control

NC(=O)C(C(N)=O)c1ccnc2ccccc12
inactive: dose: 6.25 mg/kg/injection, schedule: Q01DX001 (ip), vehicle: saline with Tween-80 102 % of control | [3] 97 % of control | dose: 12.5 mg/kg/injection, schedule: Q01DX001 (ip), vehicle: saline with Tween-80 103 % of control | [4] 93 % of control | dose: 25.0 mg/kg/injection, schedule: Q01DX001 (ip), vehicle: saline with Tween-80 96 % of control | [5] 93 % of control

CN(C)/N=C(\CBr)c1ccccc1
inactive: dose: 50.0 mg/kg/injection, schedule: Q01DX009 (ip), vehicle: saline sonified 96 % of control | dose: 100.0 mg/kg/injection, schedule: Q01DX001 (ip), vehicle: saline 102 % of control | dose: 100.0 mg/kg/injection, schedule: Q01DX009 (ip), vehicle: saline sonified 103 % of control | dose: 200.0 mg/kg/injection, schedule: Q01DX001 (ip), vehicle: saline 100 % of control

COC(=O)C1CCC[N+](C)(C)C1 (centres undefined)
inactive: dose: 25.0 mg/kg/injection, schedule: Q01DX009 (ip), vehicle: saline 100 % of control | dose: 50.0 mg/kg/injection, schedule: Q01DX009 (ip), vehicle: saline 93 % of control

CCCC(CN(C)C)C(=O)c1ccccc1 (centres undefined)
inactive: [2] 86 % of control

ClCCn1c(CCl)nc2ccc(Cl)cc21
inactive: dose: 2.5 mg/kg/injection, schedule: Q01DX009 (ip), vehicle: Klucel (hydroxypropylcellulose) (HPC) 109 % of control | dose: 5.0 mg/kg/injection, schedule: Q01DX009 (ip), vehicle: Klucel (hydroxypropylcellulose) (HPC) 101 % of control | dose: 10.0 mg/kg/injection, schedule: Q01DX009 (ip), vehicle: Klucel (hydroxypropylcellulose) (HPC) 95 % of control and 102 % of control

CCN1CC2c3cc(OC)c(OC)cc3CC(c3ccccc3)C2C1 (centres undefined)
inactive: [6] 108 % of control | [7] 104 % of control | [8] 92 % of control

CC(C)C(NC1=NCCO1)c1ccccc1 (centres undefined)
inactive: [6] 106 % of control | [7] 98 % of control | [8] 104 % of control

CCCCCCCCCCCCCC[N+]1(C)CCC[N+](C)(CCCCCCCCCCCCCC)CC1 (centres undefined)
inactive: dose: 100.0 mg/kg/injection, schedule: Q04DX003 (ip), vehicle: other 103 % of control | dose: 200.0 mg/kg/injection, schedule: Q04DX003 (ip), vehicle: other 88 % of control

COc1ccc(C(Cn2ccnc2)Sc2ccc(Cl)c(Cl)c2)cc1 (centres undefined)
inactive: [3] 96 % of control and 103 % of control | [4] 103 % of control and 104 % of control | [5] 98 % of control and 101 % of control | dose: 50.0 mg/kg/injection, schedule: Q01DX009 (ip), vehicle: saline with Tween-80 96 % of control and 108 % of control | [1] 101 % of control and 105 % of control
